Species on record: Homo sapiens
Assay: In vitro ability to inhibit arachidonic acid induced platelet aggregation (AAIPA)
Assay type: functional
Conditions: read-out: I50

SMILES | IC50
O=C(O)CCc1ccccc1/C=C1\C2CCC(O2)C1c1nc(C(=O)NCCCCC2CCCCC2)co1 (configuration not stated) | 0.008 µM
O=C(O)CCc1ccccc1/C=C1/C2CCC(O2)C1c1nc(C(=O)NCCCCC2CCCCC2)co1 (configuration not stated) | 12.7 µM

Source: ChEMBL document CHEMBL1151583, “Conformationally-restricted analogs of TXA2 antagonist SQ 33,961: Receptor binding conformation of the carboxyl sidechain” (Bioorg Med Chem Lett, 1991)
